Patent US20040122001A1, “Pharmaceutical compounds” (priority 2000, published 2004)

Row | melting point [°C] | SMILES
1 | 121 to 125 | CNC(=O)c1ccc2c(c1)CCCN2CCN1CC=C(c2c[nH]c3cc(F)ccc23)CC1
2 | 184 to 185.6 | Fc1ccc2c(C3=CCN(CCC4OCCc5cc(Br)ccc54)CC3)c[nH]c2c1 (stereo not shown)
3 | 136 to 140 | O=C(NCCO)c1ccc2c(c1)CCCN2CCN1CC=C(c2c[nH]c3cc(F)ccc23)CC1
4 | 130 to 133 | NC(=O)c1ccc2c(c1)CCCN2CCN1CC=C(c2c[nH]c3cc(F)ccc23)CC1
